Results as given in patent US20120077794A1, “BIS-PYRIDYLPYRIDONES AS MELANIN-CONCENTRATING HORMONE RECEPTOR 1 ANTAGONISTS” (GLAXSMITHKLINE LLC, priority 2009, published 2012).
pIC50: −log10 of the molar value. Read-outs that look alike come from different tables or passages of the source.

Molecular target: T1, hMCHR1 (Homo sapiens, UniProt Q99705)
T1 construct: expressed in transfected cells; host or cells: HEK293
Test: MCHR1 pIC50 Determination FLIPR Assay
Type: cell-based
Method: MCHR1 pIC50 Determination FLIPR™ Assay: HEK293 cells stably transfected with hMCHR1 were propagated as adherent cultures at 37° C. in a humidified incubator. Cells were split 1:8 at 90% confluency two times per week. New cell stocks were recovered from storage every two months. Cells were plated in black 384-well plates (Greiner) 24 hours prior to assay at 15,000 cells/well in 50 μL DMEM/F12, 10% FBS, 2 mM I-glutamine. Compounds to be profiled were prepared by making a stock solution at 3×10^−3M in 100% DMSO. The stock solutions were serially diluted 1:4 in 100% DMSO using JANUS (PerkinElmer) liquid handling instrument to allow for an 11 point curve in singlicate. At the time of the assay, the media was removed from the cell plate by aspiration, followed by the addition of 20 μL of loading buffer (Calcium 4 Kit, […]). Following 50 min incubation at 37° C., 10 μL of compound was added to the plates via the FLIPR™ instrument ([…]). The plates were incubated at room temperature for 15 minutes along with an MCH peptide agonist challenge plate. On the FLIPR™, a basal response was collected over 10 seconds followed by the addition of 10 μL of MCH challenge concentration at 4XEC50. Data was collected over 4 minutes and subjected to a nonlinear regression analysis curve fitting program to generate pIC50s.

[1] = HEK293 cells stably transfected with hMCHR1, MCH challenge at 4XEC50, at least one experimental run, read-out: IC50 in the FLIPR assay

T1 sequence (Q99705 whole entry): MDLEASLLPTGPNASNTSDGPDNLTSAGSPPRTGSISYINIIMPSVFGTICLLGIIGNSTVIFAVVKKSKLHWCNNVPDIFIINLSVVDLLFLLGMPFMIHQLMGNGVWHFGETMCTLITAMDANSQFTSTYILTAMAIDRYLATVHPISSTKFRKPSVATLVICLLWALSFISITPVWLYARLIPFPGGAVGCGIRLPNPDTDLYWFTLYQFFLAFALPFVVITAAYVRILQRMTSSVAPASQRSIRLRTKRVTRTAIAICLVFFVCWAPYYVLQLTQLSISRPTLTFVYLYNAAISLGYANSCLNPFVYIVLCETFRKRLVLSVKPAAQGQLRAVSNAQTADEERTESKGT

pIC50 (quantity and assay not stated, read-out: unlabelled value in the heading of Example 2) | pIC50 [1] | SMILES
7.06 |  | O=c1cc(OCc2ccc(Cl)cn2)ccn1-c1ccc(N2CCNCC2)nc1 [Example 2, 4-{[(5-chloro-2-pyridinyl)methyl]oxy}-6′-(piperazin-1-yl)-2H-1,3′-bipyridin-2-one]
 | 7.32 | O=c1cc(OCc2ccc(Cl)cn2)ccn1-c1ccc(N2CCC[C@@H]2CO)nc1 [Example 4, 4-{[(5-chloro-2-pyridinyl)methyl]oxy}-6′-{[(2R)-hydroxymethyl]pyrrolidin-1-yl}-2H-1,3′-bipyridin-2-one]
 | 7.28 | O=c1cc(OCc2ccc(Cl)cn2)ccn1-c1ccc(N2CCCNCC2)nc1 [Example 13]
 | 7.28 | CC(C)[C@H]1CN(c2ccc(-n3ccc(OCc4ccc(Cl)cn4)cc3=O)cn2)CCN1C [Example 19]
